The structures appear in SMILES notation. Inconclusive results are not listed. Residues, ends and D or L forms follow the SMILES beside them. *: point of attachment. Trt = c1ccc(C(c2ccccc2)(c2ccccc2)*)cc1; Cbz = O=C(OCc1ccccc1)*; Bn = c1ccc(C*)cc1; βAla = NCCC(=O)O

The assay relates to CD8F1 mice, subcutaneous mammary adenocarcinoma, T/C%. Nature of the assay: NCI In Vivo Anticancer Drug Screen. Data for tumor model Mammary Adenocarcinoma CD8F1 (subcutaneous) in CD8F1. Particulars: higher = larger tumour. The method in brief: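 Antitumor activity is assessed in transplantable-tumor mice by comparing the treated group with a vehicle-treated control group. Survival or tumor size serves as the measure, reported as T divided by C.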

[1] abbreviates: endpoint: median tumor weight (est.), dose: 100.0 mg/kg/injection, schedule: Q07DX005 (ip), vehicle: Klucel (hydroxypropylcellulose) (HPC).
Where [2] appears, read: endpoint: median tumor weight (est.), dose: 12.5 mg/kg/injection, schedule: Q07DX005 (ip), vehicle: saline.
Where [3] appears, read: endpoint: median tumor weight (est.), dose: 25.0 mg/kg/injection, schedule: Q07DX005 (ip), vehicle: saline.
[4] abbreviates: endpoint: median tumor weight (est.), dose: 6.25 mg/kg/injection, schedule: Q07DX005 (ip), vehicle: saline.
Setting [5] is: endpoint: median tumor weight (est.), dose: 8.0 mg/kg/injection, schedule: Q07DX005 (ip), vehicle: saline.
Setting [6] is: endpoint: median tumor weight (est.), dose: 50.0 mg/kg/injection, schedule: Q07DX005 (ip), vehicle: saline.
Setting [7] is: endpoint: median tumor weight change, dose: 125.0 mg/kg/injection, schedule: Q01DX001 (ip), vehicle: Klucel (hydroxypropylcellulose) (HPC).
[8] abbreviates: endpoint: median tumor weight change, dose: 250.0 mg/kg/injection, schedule: Q01DX001 (ip), vehicle: Klucel (hydroxypropylcellulose) (HPC).
Setting [9] is: endpoint: median tumor weight change, dose: 500.0 mg/kg/injection, schedule: Q01DX001 (ip), vehicle: Klucel (hydroxypropylcellulose) (HPC).
The mark [10] stands for this setting: endpoint: median tumor weight change, dose: 1000.0 mg/kg/injection, schedule: Q01DX001 (ip), vehicle: Klucel (hydroxypropylcellulose) (HPC).
[11] abbreviates: endpoint: median tumor weight change, dose: 2000.0 mg/kg/injection, schedule: Q01DX001 (ip), vehicle: Klucel (hydroxypropylcellulose) (HPC).
Setting [12] is: endpoint: median tumor weight change, dose: 125.0 mg/kg/injection, schedule: Q01DX001 (ip), vehicle: saline with Tween-80.

Turning to `Clc1ccc(C(c2ccccc2Cl)C(Cl)Cl)cc1` (configuration not stated), the T/C is, setting by setting: (endpoint: median tumor weight (est.), dose: 12.5 mg/kg/injection, schedule: Q07DX005 (ip), vehicle: Klucel (hydroxypropylcellulose) (HPC)) 124 % of control; (endpoint: median tumor weight (est.), dose: 25.0 mg/kg/injection, schedule: Q07DX005 (ip), vehicle: Klucel (hydroxypropylcellulose) (HPC)) 118 % of control; (endpoint: median tumor weight (est.), dose: 50.0 mg/kg/injection, schedule: Q07DX005 (ip), vehicle: Klucel (hydroxypropylcellulose) (HPC)) 175 % of control; under setting [1], 92 % of control.
As to `CCC(C(=O)O)C(=O)O.[NH-]CC1CCCC[N-]1.[Pt+2]`, for the setting “endpoint: median tumor weight change, dose: 125.0 mg/kg/injection, schedule: Q01DX001 (ip), vehicle: saline”, the T/C was 51 % of control.
Take `CN1c2c(nc(N)[nH]c2=O)NCC1CCNc1ccc(C(=O)NC(CCC(=O)O)C(=O)O)cc1` (configuration not stated): the T/C is 119 % of control (endpoint: mean tumor weight, dose: 25.0 mg/kg/injection, schedule: Q07DX008 (ip), vehicle: sodium bicarbonate); 77 % of control (endpoint: mean tumor weight, dose: 50.0 mg/kg/injection, schedule: Q07DX008 (ip), vehicle: sodium bicarbonate); 72 % of control (endpoint: mean tumor weight, dose: 100.0 mg/kg/injection, schedule: Q07DX008 (ip), vehicle: sodium bicarbonate); 103 % of control under setting [2]; 95 % of control under setting [3]; 98 % of control (endpoint: median tumor weight (est.), dose: 800.0 mg/kg/injection, schedule: Q07DX005 (ip), vehicle: saline).
Turning to `C1CC[N-]CC1.C1CC[N-]CC1.C1CC[N-]CC1.[Cl][Rh]([Cl])[Cl]`, the T/C is 112 % of control under setting [4]; 118 % of control under setting [5]; 100 % of control under setting [2]; 73 % of control under setting [3]; 61 % of control (endpoint: median tumor weight (est.), dose: 32.0 mg/kg/injection, schedule: Q07DX005 (ip), vehicle: saline); 84 % of control under setting [6]. Besides, the T/C is 47 % of control (endpoint: median tumor weight (est.), dose: 64.0 mg/kg/injection, schedule: Q07DX005 (ip), vehicle: saline) and 45 % of control (endpoint: median tumor weight (est.), dose: 100.0 mg/kg/injection, schedule: Q07DX005 (ip), vehicle: saline).
As for `C[C@]12CCC(=O)C(O)=C1CC[C@@H]1[C@@H]2CC[C@]2(C)C(=O)CC[C@@H]12`, the T/C is, setting by setting: (endpoint: median tumor weight (est.), dose: 100.0 mg/kg/injection, schedule: Q01DX001 (ip), vehicle: Klucel (hydroxypropylcellulose) (HPC)) 182 % of control; under setting [1], 32 % of control; (endpoint: median tumor weight (est.), dose: 200.0 mg/kg/injection, schedule: Q01DX001 (ip), vehicle: Klucel (hydroxypropylcellulose) (HPC)) 9 % of control; (endpoint: median tumor weight (est.), dose: 200.0 mg/kg/injection, schedule: Q07DX005 (ip), vehicle: Klucel (hydroxypropylcellulose) (HPC)) 62 % of control; (endpoint: median tumor weight (est.), dose: 400.0 mg/kg/injection, schedule: Q01DX001 (ip), vehicle: Klucel (hydroxypropylcellulose) (HPC)) 189 % of control; (endpoint: median tumor weight (est.), dose: 400.0 mg/kg/injection, schedule: Q07DX005 (ip), vehicle: Klucel (hydroxypropylcellulose) (HPC)) 32 % of control. Moreover, the T/C (endpoint: median tumor weight (est.), dose: 800.0 mg/kg/injection, schedule: Q01DX001 (ip), vehicle: Klucel (hydroxypropylcellulose) (HPC)) was 68 % of control; the T/C (endpoint: median tumor weight (est.), dose: 800.0 mg/kg/injection, schedule: Q07DX005 (ip), vehicle: Klucel (hydroxypropylcellulose) (HPC)) was 54 % of control; the T/C under setting [7] was 78 % of control; the T/C under setting [8] is 91 % of control; the T/C under setting [9] was 72 % of control; the T/C under setting [10] is 68 % of control. The T/C under setting [11] is 72 % of control.
`N/C(=N\O)c1cn(C2OC(CO)C(O)C2O)c2ncnc(N)c12` (configuration not stated): the T/C runs as follows: (endpoint: median tumor weight (est.), dose: 4.0 mg/kg/injection, schedule: Q07DX005 (ip), vehicle: saline) 100 % of control; under setting [5], 112 % of control.
Regarding `CC1(C)OCC(CO)(Nc2nc(N3CC3)nc(N3CC3)n2)CO1`, the T/C is, setting by setting: (endpoint: median tumor weight (est.), dose: 1.25 mg/kg/injection, schedule: Q07DX005 (ip), vehicle: saline) 41 % of control; (endpoint: median tumor weight (est.), dose: 2.5 mg/kg/injection, schedule: Q07DX005 (ip), vehicle: saline) 36 % of control; (endpoint: median tumor weight (est.), dose: 5.0 mg/kg/injection, schedule: Q07DX005 (ip), vehicle: saline) 18 % of control; (endpoint: median tumor weight (est.), dose: 10.0 mg/kg/injection, schedule: Q07DX005 (ip), vehicle: saline) 6 % of control.
As for `Nc1cc2c3c(cccc3c1)C(=O)N(CCN1CCCC1)C2=O`, where the note is “endpoint: median tumor weight change, dose: 15.63 mg/kg/injection, schedule: Q01DX001 (ip), vehicle: saline with Tween-80”, the T/C is 114 % of control.
`Nc1nc2nc[nH]c2c(=O)[nH]1`: the T/C by setting is: (endpoint: median tumor weight (est.), dose: 25.0 mg/kg/injection, schedule: Q07DX005 (ip), vehicle: suspension in saline) 73 % of control; (endpoint: median tumor weight (est.), dose: 50.0 mg/kg/injection, schedule: Q07DX005 (ip), vehicle: suspension in saline) 73 % of control; (endpoint: median tumor weight (est.), dose: 100.0 mg/kg/injection, schedule: Q07DX005 (ip), vehicle: suspension in saline) 69 % of control; (endpoint: median tumor weight (est.), dose: 200.0 mg/kg/injection, schedule: Q07DX005 (ip), vehicle: suspension in saline) 73 % of control.
On to `COC(=O)C(CSC(c1ccccc1)(c1ccccc1)c1ccccc1)NC(=O)C(CSCc1ccccc1)NC(=O)CCNC(=O)OCc1ccccc1` (configuration not stated) ({Cbz-βAla}-Cys(Bn)-Cys(Trt)-OMe; configuration not given here), for which the T/C is, setting by setting: under setting [8], 107 % of control; under setting [9], 95 % of control; under setting [10], 90 % of control; under setting [11], 84 % of control.
Consider `COc1ccc(CC2C(=O)NC(C)C(=O)N(C)C3Cc4ccc(cc4)Oc4cc(ccc4O)CC(C(=O)NC(C)C(=O)NC(C)C(=O)N2C)N(C)C3=O)cc1` (configuration not stated), for which the T/C was 55 % of control (endpoint: median tumor weight change, dose: 1.25 mg/kg/injection, schedule: Q01DX001 (ip), vehicle: saline with Tween-80); 111 % of control (endpoint: median tumor weight change, dose: 2.5 mg/kg/injection, schedule: Q01DX001 (ip), vehicle: saline with Tween-80); 115 % of control (endpoint: median tumor weight change, dose: 5.0 mg/kg/injection, schedule: Q01DX001 (ip), vehicle: saline with Tween-80); 56 % of control (endpoint: median tumor weight change, dose: 10.0 mg/kg/injection, schedule: Q01DX001 (ip), vehicle: saline with Tween-80); 81 % of control (endpoint: median tumor weight change, dose: 20.0 mg/kg/injection, schedule: Q01DX001 (ip), vehicle: saline with Tween-80).
In the case of `CC[N](CC)[Ge]([CH2]C)[CH2]C.CC[N](CC)[Ge]([CH2]C)[CH2]C`, the T/C is, setting by setting: under setting [4], 116 % of control; under setting [2], 74 % of control; under setting [3], 124 % of control; under setting [6], 94 % of control.
Take `Cc1cc(Nc2ccc3c(c2)OCO3)c2cc3c(cc2n1)OCO3`: under setting [7], the T/C was 54 % of control.
In the case of `C[C@@]12C(=O)OC(=O)[C@]1(C)[C@H]1CC[C@@H]2O1`, the T/C was 100 % of control (endpoint: median tumor weight change, dose: 0.31 mg/kg/injection, schedule: Q01DX001 (ip), vehicle: Klucel (hydroxypropylcellulose) (HPC)) and 118 % of control (endpoint: median tumor weight change, dose: 1.25 mg/kg/injection, schedule: Q01DX001 (ip), vehicle: Klucel (hydroxypropylcellulose) (HPC)).
Take `CN1C(=O)C(=Cc2ccc(O)cc2)C(=O)N(C)C1=O`: the T/C under setting [12] is 94 % of control and the T/C (endpoint: median tumor weight change, dose: 500.0 mg/kg/injection, schedule: Q01DX001 (ip), vehicle: saline with Tween-80) is 165 % of control.
In the case of `C=C1N(C)c2ccccc2C1(C)C`, the T/C under setting [12] is 115 % of control.
Consider `CCCCCn1c(C)cc(/C=C\c2ccc3cc(C)ccc3[n+]2C)c1C`, for which the T/C (endpoint: median tumor weight (est.), dose: 39.0 micrograms/kg/injection, schedule: Q07DX005 (ip), vehicle: Klucel (hydroxypropylcellulose) (HPC)) was 87 % of control; the T/C (endpoint: median tumor weight (est.), dose: 78.0 micrograms/kg/injection, schedule: Q07DX005 (ip), vehicle: Klucel (hydroxypropylcellulose) (HPC)) was 72 % of control; the T/C (endpoint: median tumor weight (est.), dose: 156.0 micrograms/kg/injection, schedule: Q07DX005 (ip), vehicle: Klucel (hydroxypropylcellulose) (HPC)) was 76 % of control; the T/C (endpoint: median tumor weight (est.), dose: 312.0 micrograms/kg/injection, schedule: Q07DX005 (ip), vehicle: Klucel (hydroxypropylcellulose) (HPC)) was 111 % of control; the T/C (endpoint: median tumor weight (est.), dose: 625.0 micrograms/kg/injection, schedule: Q07DX005 (ip), vehicle: Klucel (hydroxypropylcellulose) (HPC)) is 107 % of control.
